Test [1] concerns the target T1, HCV polymerase 1A (Δ21 NS5B, H77) (Hepatitis C virus genotype 1a, UniProt P27958).
T1 construct: 20 to 50 nM Δ21 NS5B
As to the kind of experiment: biochemical. As to the method:
(§1) Either two-fold serial dilutions (fractional inhibition assay) or a narrower range of dilutions spanning the IC50 of the inhibitor (tight binding assay) of the inhibitors were incubated with 20 mM Tris-Cl pH 7.4, 2 mM MnCl2, 1 mM dithiothreitol, 1 mM ethylene diamine tetraacetic acid (EDTA), 60 to 125 μM GTP and 20 to 50 nM Δ21 NS5B (HCV Strain 1B (BK, Genbank accession number M58335, or H77, Genbank accession number AF011751)) for 15 min at room temperature. The reaction was initiated by the addition of 20 μM CTP, 20 μM ATP, 1 μM ^3H-UTP (10 mCi/umol), 5 nM template RNA and 0.1 U/μl RNase inhibitor (RNasin, Promega), and allowed to proceed for 2 to 4 h at room temperature. Reaction volume was 50 μl. The reaction was terminated by the addition of 1 volume of 4 mM spermine in 10 mM Tris-Cl pH 8.0, 1 mM EDTA. After incubation for at least 15 min at room temperature, the precipitated RNA was captured by filtering through a GF/B filter (Millipore) in a 96 well format. The filter plate was washed three times with 200 μl each of 2 mM spermine, 10 mM Tris-Cl pH 8.0, 1 mM EDTA, and 2 times with ethanol. After air-drying, 30 μl of Microscint 20 scintillation cocktail (Packard) was added to each well, and the retained cpm were determined by scintillation counting. […] Retained cpm were plotted vs. inhibitor concentration and fit to equation 1 using non-linear regression (ref. 1) to obtain the IC50 values: Retained cpm=A[sqrt{(IC50+It−Et)^2+4*IC50*Et}−(IC50+It−Et)]
(§2) Ref. Morrison, J. F. and S. R. Stone. 1985. Approaches to the study and analysis of the inhibition of enzymes by slow- and tight-binding inhibitors. Comments Mol. Cell. Biophys. 2: 347-368.
(§3) The sequence of the template RNA used was: 5′-[…] […] […] […] […] […] […] […] […] […] […] […] […] […] […] […] […]-3′ (SEQ ID NO:1).

Test [2] addresses T2, HCV polymerase 1B (Δ21 NS5B, HCV Strain 1B BK) (Hepatitis C virus genotype 1b, UniProt P26663).
T2 construct: 20 to 50 nM Δ21 NS5B
As to the kind of experiment: biochemical. As to the method: as §1, §2, §3

The test system of test [3] is genotype 1a-H77 subgenomic replicon cell line. As to the kind of experiment: HCV Polymerase Replicon Assay, genotype 1a-H77 (luciferase reporter). It counts as cell-based. The conditions noted are these: Hepatitis C virus, 72 h, read-out: EC50 1a. In general terms: A replicon is a self-replicating genome or part of one, used to study replication in cells.
Test [4] relates to genotype 1b-Con1 subgenomic replicon cell line. Put plainly: HCV Polymerase Replicon Assay, genotype 1b-Con1 (luciferase reporter). It counts as cell-based. The conditions noted are these: Hepatitis C virus, 72 h, read-out: EC50 1b.
[5] abbreviates: replicon 1a-H77, luciferase, three days.
Where [6] appears, read: replicon 1b-Con1, luciferase, three days.

Molecules are shown by their SMILES. pEC50, pIC50: −log10 of the molar value. Like-named read-outs stand apart in the source and are kept apart here. Some results are limits rather than exact numbers.

T1 sequence (P27958 2421-2990, stated change not applied): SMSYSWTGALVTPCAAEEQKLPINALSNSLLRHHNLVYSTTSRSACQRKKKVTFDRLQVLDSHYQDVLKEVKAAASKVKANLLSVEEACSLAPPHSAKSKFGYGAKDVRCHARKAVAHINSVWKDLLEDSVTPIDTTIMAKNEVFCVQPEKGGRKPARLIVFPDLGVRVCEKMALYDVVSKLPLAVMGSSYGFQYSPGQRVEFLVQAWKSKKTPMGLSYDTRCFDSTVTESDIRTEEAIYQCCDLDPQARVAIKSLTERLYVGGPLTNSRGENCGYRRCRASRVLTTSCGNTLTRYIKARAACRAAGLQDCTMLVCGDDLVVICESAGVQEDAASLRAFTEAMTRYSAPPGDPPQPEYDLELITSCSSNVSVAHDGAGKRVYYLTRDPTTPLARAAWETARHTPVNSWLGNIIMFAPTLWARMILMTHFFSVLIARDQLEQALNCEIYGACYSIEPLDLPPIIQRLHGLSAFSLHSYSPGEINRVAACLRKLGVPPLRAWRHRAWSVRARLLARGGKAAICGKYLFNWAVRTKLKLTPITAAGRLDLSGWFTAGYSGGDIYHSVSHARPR
T2 sequence (P26663 2420-2989, stated change not applied): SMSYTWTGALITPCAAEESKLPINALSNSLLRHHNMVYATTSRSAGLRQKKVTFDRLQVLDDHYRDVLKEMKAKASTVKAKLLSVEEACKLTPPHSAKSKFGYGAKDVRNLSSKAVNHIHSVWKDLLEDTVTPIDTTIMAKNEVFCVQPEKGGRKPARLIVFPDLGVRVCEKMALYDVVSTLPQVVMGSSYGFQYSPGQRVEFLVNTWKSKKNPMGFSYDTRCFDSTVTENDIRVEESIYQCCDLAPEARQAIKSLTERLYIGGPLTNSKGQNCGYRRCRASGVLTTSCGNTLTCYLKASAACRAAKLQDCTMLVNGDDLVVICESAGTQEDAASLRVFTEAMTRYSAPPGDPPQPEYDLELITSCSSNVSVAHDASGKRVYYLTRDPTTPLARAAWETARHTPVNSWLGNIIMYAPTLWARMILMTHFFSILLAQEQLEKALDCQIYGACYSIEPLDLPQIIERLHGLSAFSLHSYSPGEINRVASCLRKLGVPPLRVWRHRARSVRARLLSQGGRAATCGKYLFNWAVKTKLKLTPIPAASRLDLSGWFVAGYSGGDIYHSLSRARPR

The term pIC50 denotes the negative decadic logarithm of the IC50, by convention in mol/L. Higher therefore signals a low IC50. As usually defined, the pEC50 is the negative decadic logarithm of the EC50, by convention in mol/L. As to `COc1c(/C=C/c2ccc(NS(C)(=O)=O)cc2)cc(-n2ccc(=O)[nH]c2=O)cc1-c1ccco1` [IB-L1-1.46, (E)-N-(4-(5-(2,4-dioxo-3,4-dihydropyrimidin-1(2H)-yl)-3-(furan-2-yl)-2-methoxystyryl)phenyl)methanesulfonamide], the pIC50 in test [1] and in test [2] was 7.00 to 8.00 in each case. Besides, the negative-log EC50 (pEC50) in test [3] (setting [5]) was 6.00 to 7.00; in test [4] (setting [6]) it was > 8.00.

`COc1c(/C=C\c2ccc(NS(C)(=O)=O)cc2)cc(-n2ccc(=O)[nH]c2=O)cc1C(C)(C)C` [IB-L1-1.34, N-(4-{(Z)-2-[3-tert-Butyl-5-(2,4-dioxo-3,4-dihydro-2H-pyrimidin-1-yl)-2-methoxy-phenyl]-vinyl}-phenyl)-methanesulfonamide]: the negative logarithm of the IC50 (pIC50) in test [1] and in test [2] was < 6.00 throughout. Further, the values for the pEC50 in test [3] and in test [4] were 7.00 to 8.00 and > 8.00, respectively.

In the case of `COc1c(/C=C/c2ccc(NS(C)(=O)=O)cc2)cc(N2CCC(=O)NC2=O)cc1C(C)(C)C` [IA-L1-1.9, (E)-N-(4-(3-tert-butyl-5-(2,4-dioxotetrahydropyrimidin-1(2H)-yl)-2-methoxystyryl)phenyl)methanesulfonamide], the values for the negative logarithm of the IC50 (pIC50) in test [1] and in test [2] were > 8.00 and 7.00 to 8.00, respectively. The results for the pEC50 in test [3] and in test [4] were 7.00 to 8.00 and > 8.00, respectively.

`CO/N=C/c1cc(NS(C)(=O)=O)ccc1/C=C/c1cc(-n2ccc(=O)[nH]c2=O)cc(C(C)(C)C)c1OC` [IB-L1-1.19, N-(4-(3-tert-butyl-5-(2,4-dioxo-3,4-dihydropyrimidin-1(2H)-yl)-2-methoxystyryl)-3-((E)-(methoxyimino)methyl)phenyl)methanesulfonamide]: the results for the pIC50 in test [1] and in test [2] were > 8.00 and 7.00 to 8.00, respectively. For the same compound, the pEC50 in test [3] is 7.00 to 8.00; in test [4], > 8.00.

For `COc1c(/C=C/c2ccc(N(C(C)=O)S(C)(=O)=O)cc2)cc(N2CCC(=O)NC2=O)cc1C(C)(C)C` [IA-L1-1.11, (E)-N-(4-(3-tert-butyl-5-(2,4-dioxotetrahydropyrimidin-1(2H)-yl)-2-methoxystyryl)phenyl)-N-(methylsulfonyl)acetamide], the pIC50 in test [1] and in test [2] was 7.00 to 8.00 each time. Besides, the pEC50 in test [3] and in test [4] was > 8.00 throughout.

On to `COc1c(/C=C(\C)c2ccc(NS(C)(=O)=O)cc2)cc(N2CCC(=O)NC2=O)cc1C(C)(C)C` [IA-L1-1.6, (E)-N-(4-(1-(3-tert-butyl-5-(2,4-dioxotetrahydropyrimidin-1(2H)-yl)-2-methoxyphenyl)prop-1-en-2-yl)phenyl)methanesulfonamide], for which the figures for the negative logarithm of the IC50 (pIC50) in test [1] and in test [2] were > 8.00 and 7.00 to 8.00, respectively. The pEC50 in test [3] and in test [4] was 7.00 to 8.00 throughout.

For the compound `COc1c(/C=C/c2ccc(NS(C)(=O)=O)cc2C=NO)cc(-n2ccc(=O)[nH]c2=O)cc1C(C)(C)C` [IB-L1-1.8, N-[4-{(E)-2-[3-tert-Butyl-5-(2,4-dioxo-3,4-dihydro-2H-pyrimidin-1-yl)-2-methoxy-phenyl]-vinyl}-3-(hydroxyimino-methyl)-phenyl]-methanesulfonamide], the pIC50 in test [1] is > 8.00; in test [2] it was 7.00 to 8.00. For the same compound, the results for the pEC50 in test [3] and in test [4] were 7.00 to 8.00 and > 8.00, respectively.

Take `COc1c(/C=C/c2ccc(NS(C)(=O)=O)cc2)cc(-n2ccc(=O)[nH]c2=O)cc1-c1ccoc1` [IB-L1-1.50, (E)-N-(4-(5-(2,4-dioxo-3,4-dihydropyrimidin-1(2H)-yl)-3-(furan-3-yl)-2-methoxystyryl)phenyl)methanesulfonamide]: the pIC50 in test [1] and in test [2] was 7.00 to 8.00 each time. Further, the negative logarithm of the EC50 (pEC50) in test [3] (setting [5]) was 6.00 to 7.00; in test [4] (setting [6]) it was 7.00 to 8.00.

Turning to `COc1c(C=C(F)c2ccc(NS(C)(=O)=O)cc2)cc(N2CCC(=O)NC2=O)cc1C(C)(C)C` (racemic) [IA-L1-1.21, N-(4-(2-(3-tert-butyl-5-(2,4-dioxotetrahydropyrimidin-1(2H)-yl)-2-methoxyphenyl) 1-fluorovinyl)phenyl)methanesulfonamide], the pIC50 in test [1] and in test [2] was 7.00 to 8.00 in each case. Besides, the negative logarithm of the EC50 (pEC50) in test [3] and in test [4] was > 8.00 in each case.

With `COc1c(/C=C/c2ccc(NS(C)(=O)=O)cc2-c2ncco2)cc(-n2ccc(=O)[nH]c2=O)cc1C(C)(C)C` [IB-L1-1.26, (E)-N-(4-(3-tert-butyl-5-(2,4-dioxo-3,4-dihydropyrimidin-1(2H)-yl)-2-methoxystyryl)-3-(oxazol-2-yl)phenyl)methanesulfonamide], the pIC50 in test [1] and in test [2] was 7.00 to 8.00 in each case. In addition, the results for the pEC50 in test [3] and in test [4] were 7.00 to 8.00 and > 8.00, respectively.

Turning to `CC(C)(C)c1cc(/C=C/c2ccc(NS(C)(=O)=O)cc2)cc(N2CCC(=O)NC2=O)c1` [IA-L1-1.16, (E)-N-(4-(3-tert-butyl-5-(2,4-dioxotetrahydropyrimidin-1(2H)-yl)styryl)phenyl)methanesulfonamide], the negative logarithm of the IC50 (pIC50) in test [1] and in test [2] was > 8.00 each time. For the same compound, the negative-log EC50 (pEC50) in test [3] and in test [4] was 7.00 to 8.00 each time.

Take `COc1c(/C=C/c2ccc(NS(C)(=O)=O)cc2)cc(-n2ccc(=O)[nH]c2=O)cc1C(C)(C)C` [IB-L1-1.1, (E)-N-(4-(3-tert-butyl-5-(2,4-dioxo-3,4-dihydropyrimidin-1(2H)-yl)-2-methoxystyryl)phenyl)methanesulfonamide]: the pIC50 in test [1] and in test [2] was > 8.00 each time. The pEC50 in test [3] and in test [4] was > 8.00 in each case.

For `COc1c(/C=C/c2ccc(N)cc2)cc(N2CCC(=O)NC2=O)cc1C(C)(C)C` [IA-L1-1.13, (E)-1-(3-(4-aminostyryl)-5-tert-butyl-4-methoxyphenyl)dihydropyrimidine-2,4(1H,3H)-dione], the pIC50 in test [1] and in test [2] was 6.00 to 7.00 throughout. In addition, the pEC50 in test [3] is < 6.00; in test [4] it was 6.00 to 7.00.

Regarding `COc1c(/C=C/c2ccc(NS(C)(=O)=O)cc2C(=O)N2CCC2)cc(-n2ccc(=O)[nH]c2=O)cc1C(C)(C)C` [IB-L1-1.22, N-(3-(azetidine-1-carbonyl)-4-{(E)-2-[3-tert-butyl-5-(2,4-dioxo-3,4-dihydro-2H-pyrimidin-1-yl)-2-methoxy-phenyl]-vinyl}-phenyl)-methanesulfonamide], the pIC50 in test [1] and in test [2] was 7.00 to 8.00 each time. In addition, the pEC50 in test [3] was 7.00 to 8.00; in test [4], > 8.00.

As for `COc1c(/C=C/c2ccc(NS(C)(=O)=O)cc2CNCCC(C)C)cc(-n2ccc(=O)[nH]c2=O)cc1C(C)(C)C` [IB-L1-1.31, (E)-N-(4-(3-tert-butyl-5-(2,4-dioxo-3,4-dihydropyrimidin-1(2H)-yl)-2-methoxystyryl)-3-((isopentylamino)methyl)phenyl)methanesulfonamide], the pIC50 is 7.00 to 8.00 in test [1] and 6.00 to 7.00 in test [2]. Besides, the pEC50 in test [3] and in test [4] was < 6.00 each time.

As to `COC(=O)c1cc(NS(C)(=O)=O)ccc1/C=C/c1cc(-n2ccc(=O)[nH]c2=O)cc(C(C)(C)C)c1OC` [IB-L1-1.7, (E)-methyl 2-(3-tert-butyl-5-(2,4-dioxo-3,4-dihydropyrimidin-1(2H)-yl)-2-methoxystyryl)-5-(methylsulfonamido)benzoate], the figures for the pIC50 in test [1] and in test [2] were > 8.00 and 7.00 to 8.00, respectively. Besides, the pEC50 in test [3] and in test [4] was > 8.00 throughout.

In the case of `COc1c(/C=C/c2cc(F)c(NS(C)(=O)=O)cc2C)cc(-n2ccc(=O)[nH]c2=O)cc1C(C)(C)C` [IB-L1-1.15, (E)-N-(4-(3-tert-butyl-5-(2,4-dioxo-3,4-dihydropyrimidin-1(2H)-yl)-2-methoxystyryl)-2-fluoro-5-methylphenyl)methanesulfonamide], the pIC50 in test [1] is > 8.00; in test [2], 7.00 to 8.00. Also, the pEC50 in test [3] and in test [4] was > 8.00 throughout.

As for `COC(=O)c1cc(NS(C)(=O)=O)ccc1CCc1cc(-n2ccc(=O)[nH]c2=O)cc(C(C)(C)C)c1OC` [IB-L5-2-1.1, methyl 2-(3-tert-butyl-5-(2,4-dioxo-3,4-dihydropyrimidin-1(2H)-yl)-2-methoxyphenethyl)-5-(methylsulfonamido)benzoate], the pIC50 is > 8.00 in test [1] and 7.00 to 8.00 in test [2]. For the same compound, the results for the pEC50 in test [3] (setting [5]) and in test [4] (setting [6]) were 7.00 to 8.00 and > 8.00, respectively.

Values taken from patent US8178548B2, “Anti-infective agents and uses thereof” (priority 2007, dated 2012).
